Measured values published in patent US11622965B2, “Methods for treating lymphoid malignancies” (ZHEJIANG DTRM BIOPHARMA CO. LTD., priority 2017, dated 2023).
“Also recorded” adds a separate entry of the source.

Experiments:
EGFR kinase = EGFR kinase (Homo sapiens, UniProt P00533); assay: 46 kinase panel; format: biochemical
Excerpt: (§1) Both patents are incorporated by reference herein in their entirety.

FGFR1 = FGFR1 (Homo sapiens, UniProt P11362); assay: 46 kinase panel; format: biochemical
FGFR1, sequence (P11362 22-822, species assumed): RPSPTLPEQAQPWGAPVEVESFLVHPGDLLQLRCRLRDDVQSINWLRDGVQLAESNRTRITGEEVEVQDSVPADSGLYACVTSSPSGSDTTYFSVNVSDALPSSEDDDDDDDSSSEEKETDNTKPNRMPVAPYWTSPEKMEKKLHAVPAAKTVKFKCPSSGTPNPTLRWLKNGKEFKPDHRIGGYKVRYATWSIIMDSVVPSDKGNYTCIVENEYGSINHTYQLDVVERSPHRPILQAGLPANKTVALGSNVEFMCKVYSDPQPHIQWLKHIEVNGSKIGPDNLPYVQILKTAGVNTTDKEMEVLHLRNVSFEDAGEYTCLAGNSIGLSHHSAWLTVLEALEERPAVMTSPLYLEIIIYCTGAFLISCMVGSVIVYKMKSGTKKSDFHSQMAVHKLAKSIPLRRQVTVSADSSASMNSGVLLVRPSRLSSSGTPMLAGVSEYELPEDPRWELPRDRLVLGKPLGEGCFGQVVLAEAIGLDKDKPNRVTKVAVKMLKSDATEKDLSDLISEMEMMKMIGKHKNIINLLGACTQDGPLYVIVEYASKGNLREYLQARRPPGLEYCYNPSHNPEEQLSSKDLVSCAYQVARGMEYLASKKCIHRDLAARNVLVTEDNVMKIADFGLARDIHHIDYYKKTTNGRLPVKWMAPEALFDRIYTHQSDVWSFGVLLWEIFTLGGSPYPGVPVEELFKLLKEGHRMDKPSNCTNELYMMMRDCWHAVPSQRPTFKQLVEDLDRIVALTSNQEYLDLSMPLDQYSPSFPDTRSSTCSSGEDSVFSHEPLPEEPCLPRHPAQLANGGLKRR
Excerpt: as §1

FGFR2 = FGFR2 (Homo sapiens, UniProt P21802); assay: 46 kinase panel; format: biochemical
FGFR2, sequence (P21802 22-821, species assumed): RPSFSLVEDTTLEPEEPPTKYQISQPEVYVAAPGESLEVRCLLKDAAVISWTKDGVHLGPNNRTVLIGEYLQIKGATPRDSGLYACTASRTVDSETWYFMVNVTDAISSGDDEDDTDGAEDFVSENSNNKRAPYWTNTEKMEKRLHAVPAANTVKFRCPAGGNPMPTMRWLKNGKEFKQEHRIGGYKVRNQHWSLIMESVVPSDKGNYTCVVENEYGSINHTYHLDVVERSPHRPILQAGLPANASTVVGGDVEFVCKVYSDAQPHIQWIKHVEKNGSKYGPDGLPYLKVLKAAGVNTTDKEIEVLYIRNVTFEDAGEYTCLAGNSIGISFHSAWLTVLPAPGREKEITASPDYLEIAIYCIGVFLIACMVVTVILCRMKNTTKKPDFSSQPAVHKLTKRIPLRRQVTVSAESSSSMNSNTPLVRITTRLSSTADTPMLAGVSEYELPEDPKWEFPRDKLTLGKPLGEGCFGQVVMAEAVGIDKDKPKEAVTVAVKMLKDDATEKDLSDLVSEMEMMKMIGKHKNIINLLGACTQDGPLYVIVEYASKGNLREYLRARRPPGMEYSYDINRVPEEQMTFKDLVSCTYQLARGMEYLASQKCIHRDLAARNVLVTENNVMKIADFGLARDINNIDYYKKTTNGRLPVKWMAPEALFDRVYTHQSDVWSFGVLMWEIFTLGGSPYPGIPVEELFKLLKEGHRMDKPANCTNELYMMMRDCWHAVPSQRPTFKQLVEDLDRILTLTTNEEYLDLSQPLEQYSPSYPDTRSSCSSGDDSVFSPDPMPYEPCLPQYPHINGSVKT
Excerpt: as §1

JAK3 = target: T1, JAK3 (Homo sapiens, UniProt P52333); assay: 46 kinase panel; format: biochemical
T1 sequence (P52333 1-1124): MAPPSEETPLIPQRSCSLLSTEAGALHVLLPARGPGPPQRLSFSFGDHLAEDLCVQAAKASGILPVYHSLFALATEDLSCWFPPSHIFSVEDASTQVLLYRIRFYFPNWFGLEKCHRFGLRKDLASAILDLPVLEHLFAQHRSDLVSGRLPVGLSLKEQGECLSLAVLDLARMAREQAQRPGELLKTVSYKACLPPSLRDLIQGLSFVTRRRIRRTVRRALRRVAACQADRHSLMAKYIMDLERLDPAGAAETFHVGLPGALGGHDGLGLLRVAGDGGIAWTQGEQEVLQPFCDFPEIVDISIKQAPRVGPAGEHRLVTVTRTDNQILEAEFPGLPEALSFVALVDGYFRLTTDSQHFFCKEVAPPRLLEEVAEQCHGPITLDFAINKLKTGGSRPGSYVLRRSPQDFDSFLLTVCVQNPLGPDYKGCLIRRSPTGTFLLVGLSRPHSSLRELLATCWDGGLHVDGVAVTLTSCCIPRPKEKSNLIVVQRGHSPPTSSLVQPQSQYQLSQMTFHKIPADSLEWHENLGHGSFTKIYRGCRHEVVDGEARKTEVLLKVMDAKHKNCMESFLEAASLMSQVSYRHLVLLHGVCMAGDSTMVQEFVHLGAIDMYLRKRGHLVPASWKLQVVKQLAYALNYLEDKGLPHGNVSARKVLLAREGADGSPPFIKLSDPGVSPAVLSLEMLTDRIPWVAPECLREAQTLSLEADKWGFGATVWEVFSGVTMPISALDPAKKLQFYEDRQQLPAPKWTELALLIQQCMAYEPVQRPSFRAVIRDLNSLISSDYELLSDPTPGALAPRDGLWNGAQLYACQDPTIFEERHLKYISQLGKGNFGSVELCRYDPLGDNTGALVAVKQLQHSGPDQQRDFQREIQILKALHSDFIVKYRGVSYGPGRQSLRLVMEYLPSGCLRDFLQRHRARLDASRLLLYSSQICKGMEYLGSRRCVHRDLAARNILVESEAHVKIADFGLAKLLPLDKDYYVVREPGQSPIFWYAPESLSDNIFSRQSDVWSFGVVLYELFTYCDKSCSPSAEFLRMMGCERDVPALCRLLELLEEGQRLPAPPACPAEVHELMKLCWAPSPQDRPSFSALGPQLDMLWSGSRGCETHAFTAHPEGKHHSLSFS
Excerpt: as §1

toxicokinetics in rats = format: in vivo
Excerpt: as §1

[1] = China Phase I trial of Compound A monotherapy: safety; format: in vivo, human
Description: (§2) The pharmacokinetics of Compound A was also evaluated.
(§3) Patients who met the following inclusion criteria were enrolled in the trials in China: i) age≥18 years, no gender limits, and provide the informed consent form; ii) B-cell lymphoma classification is based on WHO classified definition, including CLL, small lymphocytic lymphoma (SLL); CLL with 17p-; MCL; WM; DLBCL, etc.; iii) measurable lesion: NHL requires at least one≥2 cm two-dimensional lesion diameter, CLL≥5000 leukemia cells/mm^3, WM IgM≥1000 mg/dL, bone marrow lymph plasma-like cells infiltration, histopathologically diagnosed as DLBCL; iv) patients failed in lymphoma treatment at least once and have no standard therapeutic options; DLBCL patients who are not suitable for or reject autologous stem cell transplantation; and v) ECOG (Eastern Cooperative Oncology Group) performance status 0˜1. Meanwhile, patients who met any one of the following criteria were excluded: i) disease with changes of pathological tissue types (including large cell transformation); ii) patients received other BTK inhibitor therapy (China only); and iii) patients with HIV infection, or HBs-Ag or HBc-Ab positive.
(§4) No intrapatient dose escalation of Compound A was permitted.

[2] = tested on: relapsed/refractory B-cell lymphomas; assay: China Phase I trial of Compound A monotherapy: efficacy; format: in vivo, human
Description: as §2, §3, §4

[3] = U.S. Phase Ia trial of Compound A monotherapy: pharmacokinetics; format: in vivo; conditions: human, plasma, oral, Compound A Plasma Level
Description: (§5) Studies on the 200 mg and 300 mg cohorts were conducted in a standard 3+3 design.
Drug-related adverse events (AEs), including DLT, non-hematologic AEs and hematologic AEs were recorded. […] The PK indexes of single dose administration included AUClast, AUCO-∞, Cmax, tmax, t1/2, CL/F and Vd/F. The PK indexes of steady state under continuous administration included AUCss, Cmax,ss and tmax,ss.

[4] = tested on: relapsed/refractory CLL, Hodgkin lymphoma and B-cell NHL including DLBCL; assay: U.S. Phase Ia trial of Compound A monotherapy: efficacy; format: in vivo, human; parameters: key to response: PD: disease progression; conditions: for time on continued monotherapy treatment: treatment continuing
Description: Eligibility criteria for the U.S. study were similar to the China study, but histological subtypes included patients with relapsed/refractory CLL, Hodgkin lymphoma and B-cell NHL including DLBCL. Patients who had prior exposure to BTK inhibiting agents were permitted in the trial.
as §5
(§6) The response rate, including the partial response and complete response rate, was defined according to the Revised International Working Group Criteria for non-Hodgkin's lymphoma (Cheson et al., J Clin Oncol 25:579-86 (2007)). Drug-related adverse events (AEs), including DLT, non-hematologic AEs and hematologic AEs were recorded. […] The PK indexes of single dose administration included AUClast, AUCO-∞, Cmax, tmax, t1/2, CL/F and Vd/F. The PK indexes of steady state under continuous administration included AUCss, Cmax,ss and tmax,ss.

[5] = tested on: relapsed/refractory CLL and B-cell lymphomas; assay: China and U.S. first-in-human monotherapy trials, overall conclusions
Description: The primary endpoint of the trials was safety, while the secondary endpoints of the trials were anti-tumor activity and pharmacokinetic parameters. Patients enrolled in the trials met the following criteria: relapsed/refractory CLL and B-cell lymphoma with no available effective therapies, ≥18 years of age, and an Eastern Cooperative Oncology Group (ECOG) score≤1. […] The 3+3 dose-escalation method was used.
Relapsed/refractory B-cell lymphoma patients who met the aforementioned enrollment criteria were enrolled without randomization. […] The patients were required to stay in the hospital for 24 hours after the first dosing. […] The first 28 days of treatment was considered DLT period.
as §5, §6

[6] = 13 patients, 50-400 mg daily, 28 day dosing schedule

EGFR kinase, sequence (P00533 25-1210): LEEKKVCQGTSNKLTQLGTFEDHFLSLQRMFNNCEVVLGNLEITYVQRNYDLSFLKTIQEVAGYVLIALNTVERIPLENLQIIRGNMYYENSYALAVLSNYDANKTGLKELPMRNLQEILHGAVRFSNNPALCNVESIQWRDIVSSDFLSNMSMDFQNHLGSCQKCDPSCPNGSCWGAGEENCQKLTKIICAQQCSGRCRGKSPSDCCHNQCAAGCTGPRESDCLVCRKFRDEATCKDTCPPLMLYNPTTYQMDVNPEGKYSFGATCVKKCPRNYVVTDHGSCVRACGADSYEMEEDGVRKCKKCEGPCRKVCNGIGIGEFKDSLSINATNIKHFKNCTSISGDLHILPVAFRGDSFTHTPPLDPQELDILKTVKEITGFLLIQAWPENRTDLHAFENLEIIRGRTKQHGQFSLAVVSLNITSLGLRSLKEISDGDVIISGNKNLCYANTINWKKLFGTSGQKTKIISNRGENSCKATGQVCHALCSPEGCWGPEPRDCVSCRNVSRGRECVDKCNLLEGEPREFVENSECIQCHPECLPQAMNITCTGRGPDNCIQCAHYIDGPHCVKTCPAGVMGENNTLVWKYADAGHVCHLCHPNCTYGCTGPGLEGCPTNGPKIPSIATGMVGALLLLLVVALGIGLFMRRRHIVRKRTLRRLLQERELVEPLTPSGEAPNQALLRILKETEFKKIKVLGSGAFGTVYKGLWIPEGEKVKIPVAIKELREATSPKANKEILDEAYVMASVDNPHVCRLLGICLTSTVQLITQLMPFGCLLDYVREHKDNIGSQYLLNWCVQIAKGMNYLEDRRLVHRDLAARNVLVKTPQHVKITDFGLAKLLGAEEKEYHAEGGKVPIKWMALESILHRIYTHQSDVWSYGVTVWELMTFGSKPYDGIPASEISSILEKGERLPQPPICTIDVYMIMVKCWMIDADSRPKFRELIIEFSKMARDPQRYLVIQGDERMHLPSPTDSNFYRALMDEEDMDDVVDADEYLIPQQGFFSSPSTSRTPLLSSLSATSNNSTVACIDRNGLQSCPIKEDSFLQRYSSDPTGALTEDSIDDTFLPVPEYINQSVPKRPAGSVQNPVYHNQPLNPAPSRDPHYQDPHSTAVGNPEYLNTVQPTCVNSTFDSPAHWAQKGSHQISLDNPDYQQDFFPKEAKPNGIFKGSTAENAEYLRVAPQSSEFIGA

## C=CC(=O)N1CC[C@@H](n2nc(-c3ccc(Oc4c(F)c(F)cc(F)c4F)cc3F)c3c(N)ncnc32)C1 [Compound A, 1-((R)-3-(4-amino-3-(2-fluoro-4-(2,3,5,6-tetrafluorophenoxy)phenyl)-1H-pyrazolo[3,4-d]pyrimidin-1-yl)pyrrolidin-1-yl)prop-2-en-1-one]
EGFR kinase; 46 kinase panel
  inhibition of EGFR: partial inhibition
EGFR kinase; read-out: IC50 against EGFR kinase
  IC50: 110 nM
FGFR1
  inhibition of FGFR1: partial inhibition
FGFR2
  inhibition of FGFR2: partial inhibition
JAK3
  inhibition of JAK3: partial inhibition
Toxicokinetics in rats
  toxicokinetics properties: Improved toxicokinetics properties
[1]
  Grade 2, 4 or 5 hematologic events: No Grade 2, 4 or 5 hematologic events occurred
  Grade 2, 4 or 5 non-hematologic events: No Grade 2, 4 or 5 non-hematologic events occurred
[1]; [6]
  anemia, patients: 23.1%
  leucopenia, patients: 23.1%
  neutropenia, patients: 23.1%
[1]; 50-400 mg daily
  dose-limiting toxicity: No dose-limiting toxicity occurred
[1]; 28 day dosing schedule
  grade of the majority of drug-related AEs: grade 1
[1]; one patient
  Grade 1 alanine aminotransferase (ALT) elevation, patients: 7.7%
  Grade 1 neutropenia, patients: 7.7%
  Grade 3 pneumonia, patients: 7.7%
[1]; two patients
  Grade 3 neutropenia, patients: 15.4%
[2]; FL patients (N=2)
  response: 1PR, 1SD
[2]; FL patients, first cycle
  progressive disease after treatment: three FL patients experienced progressive disease
[2]; MZL patients (N=2)
  response: 1CR, 1SD
[2]; WM patients (N=2)
  response: 2PR
[3]; 50 mg, Day 1, 50 mg
  concentration at 0 h: 0 ng/mL
  concentration at 0.5 h: 2.84 ng/mL
  concentration at 1 h: 26.9 ng/mL
  concentration at 2 h: 63.4 ng/mL
  concentration at 4 h: 15.3 ng/mL
  concentration at 6 h: 6.44 ng/mL
  concentration at 24 h: 0 ng/mL
[3]; 100 mg, Day 1, 100 mg
  concentration at 0 h: 9.04 ng/mL
  concentration at 0.5 h: 44.9 ng/mL
  concentration at 1 h: 53.3 ng/mL
  concentration at 2 h: 21.3 ng/mL
  concentration at 4 h: 13.3 ng/mL
  concentration at 6 h: 13.3 ng/mL
  concentration at 24 h: 3.06 ng/mL
[3]; 200 mg, Day 1, 200 mg
  concentration at 0 h: 0 ng/mL
  concentration at 0.5 h: 0 ng/mL
[4]; B-cell lymphoma patient
  response: 1SD
[4]; B-cell lymphoma, 50 mg
  time on monotherapy until off study for disease progression: five months
[4]; CLL patients (N=2)
  response: 1PR, 1SD
[4]; CLL, 100 mg
  time on continued monotherapy treatment: 13 months
[4]; CLL, 200 mg
  time on monotherapy until off study for disease progression: 8 months
[4]; DLBCL patient
  response: PD
[4]; DLBCL, 200 mg
  time on monotherapy until off study for disease progression: 2 months
[4]; MZL patient
  response: 1PR
[4]; MZL
  time on continued monotherapy treatment: 11 months
[5]; China and U.S. trials
  cycles of monotherapy tolerated: up to 23 cycles
[5]; Compound A monotherapy, China and U.S. trials
  maximum tolerated dose: had not been reached
[5]; all patients at all of the dose levels
  exposures to Compound A: adequate exposures
[5]; orally 50-400 mg once daily
  efficacy in WM, MZL, and SLL/CLL patients: preliminary efficacy was observed; also recorded: Efficacy of the Compound has also been observed
[5]; patients with relapsed/refractory CLL and B-cell lymphomas, China and U.S. trials
  safety and tolerability: safe and well tolerated
